Measurements from ChEMBL document CHEMBL1148258, “Synthesis of OSW-1 analogs with modified side chains and their antitumor activities” (Bioorg Med Chem Lett, 2004).

Tests used:
Format in all cases: functional, cell-based
MCF7 = test: In vitro antitumor activity of compound against MCF-7 cell line (human breast cancer cells)
BEL-7404 tumor cell line = test: In vitro antitumor activity of compound against 7404 cell line (human liver carcinoma cells)
AGS = test: In vitro antitumor activity of compound against AGS cell line (human stomach cancer cells)

Molecule	IC50 (MCF7; Homo sapiens, MCF7) [nM]	IC50 (BEL-7404 tumor cell line; Homo sapiens, BEL-7404) [nM]	IC50 (AGS; Homo sapiens, AGS) [nM]	IC50 (MCF7; mcf7) [nM]	IC50 (BEL-7404 tumor cell line; bel-7404) [nM]	IC50 (AGS; ags) [nM]
COc1ccc(C(=O)OC2C(OC3C(O)COC(O[C@H]4CC5C6CC=C7C[C@@H](O)CC[C@]7(C)C6CC([C@H](C)C(O)CCC(C)C)[C@]5(C)[C@@H]4O)C3OC(C)=O)OCC(O)C2O)cc1 (stereo partly drawn)	1790	1860	7260	–	–	–
COc1ccc(C(=O)OC2C(OC3C(O)COC(O[C@H]4CC5C6CC=C7C[C@@H](O)CC[C@]7(C)C6CC([C@H](C)C(=O)CCC(C)C)[C@]5(C)[C@@H]4O)C3OC(C)=O)OCC(O)C2O)cc1 (stereo partly drawn)	270	100	1420	–	–	–
CISPLATIN	–	–	–	18700	8370	24100
COc1ccc(C(=O)OC2C(OC3C(O)COC(O[C@H]4CC5C6CC=C7C[C@@H](O)CC[C@]7(C)C6CC([C@H](C)C(C)=O)[C@]5(C)[C@@H]4O)C3OC(C)=O)OCC(O)C2O)cc1 (stereo partly drawn)	6610	2900	6980	–	–	–

The remaining molecules from weak to strong by IC50 (MCF7; Homo sapiens, MCF7), led by results:

IC50 (MCF7; Homo sapiens, MCF7) [nM]	IC50 (BEL-7404 tumor cell line; Homo sapiens, BEL-7404) [nM]	IC50 (AGS; Homo sapiens, AGS) [nM]	IC50 (MCF7; mcf7) [nM]	IC50 (BEL-7404 tumor cell line; bel-7404) [nM]	IC50 (AGS; ags) [nM]	Molecule
60	63	1380	–	–	–	COc1ccc(C(=O)OC2C(OC3C(O)COC(O[C@H]4CC5C6CC=C7C[C@@H](O)CC[C@]7(C)C6CC([C@H](C)CCCC(C)C)[C@]5(C)[C@@H]4O)C3OC(C)=O)OCC(O)C2O)cc1 (stereo partly drawn)
20	32	1920	–	–	–	CCCC(=O)[C@@H](C)C1CC2C(CC=C3C[C@@H](O)CC[C@@]32C)C2C[C@H](OC3OCC(O)C(OC4OCC(O)C(O)C4OC(=O)c4ccc(OC)cc4)C3OC(C)=O)[C@@H](O)[C@]21C (stereo partly drawn)
